# Measurements published in patent US20060040909A1, “Selenophene compounds” (DEVELOPMENT CENTER FOR BIOTECHNOLOGY, priority 2004, published 2006).
# Test system: Hep-3B liver cancer cells
# Test: In vivo assay, Hep-3B cells transplanted subcutaneously into athymic mice
# Conditions: intraperitoneally, once every two days, 14th day, vs control group
# Experimental: Compound 3 was tested for its efficacy against Hep-3B liver cancer cells implanted in mice of two treated groups at a […] dosage of 50 mg/kg and 75 mg/kg. In a control group, mice bearing Hep-3B liver cancer cells were not treated with any test compound. Male athymic mice (Ncr nu/nu) of 4-6 weeks of age and weighing 20-25 g were used. Mice were housed in cages in ventilated cabinets and provided sterilized pellet diet and sterile water ad libitum. The temperature was kept between 23-25° C. and a humidity of about 50±10%. Light of the housing area was on a 12-hour light/dark cycle. All experimentation was performed under the IACUC guidelines adopted by the Development Center for Biotechnology, Taiwan. Hep-3B cells were transplanted subcutaneously into athymic mice. In the treated groups, when the tumor reached a volume of about 50 mm^3, mice were treated with compound 3 at a dosage of 50 mg/kg or 75 mg/kg once every two days for three times. The treated groups and the control group each had 7 mice. Compound 3 was administered intraperitoneally. The sizes of tumors were measured using a caliper at least twice a week and the tumor volume (TV) was calculated. Body weights were also monitored along with tumor volume measurement. The percentage of tumor growth was determined by dividing the mean TV of the treated group by the mean TV of a control group.
structure (smiles),measurement,setting,value
Cn1c(-c2ccc(CO)[se]2)cc(CO)c1-c1ccc(CO)[se]1 [Compound 3],mean TV (tumor volume) reduced,three doses of 50 mg/kg,37%
same,mean TV (tumor volume) reduced,three doses of 75 mg/kg,63%
